This note sets out measurements from PubChem BioAssay AID608 (Sanford-Burnham Center for Chemical Genomics, 2007).

Active and inactive are the calls of the source. How the calls were made is not given here.

The target in the assay is Peptidyl-prolyl cis-trans isomerase FKBP1A (Homo sapiens) (UniProt P62942). The assay is described as follows: FKBP12 binders, biophysical, NMR detection (AID 608). Particulars: NMR binding, purified FKBP12.
Peptidyl-prolyl cis-trans isomerase FKBP1A (Homo sapiens), sequence (P62942 whole entry, looked up): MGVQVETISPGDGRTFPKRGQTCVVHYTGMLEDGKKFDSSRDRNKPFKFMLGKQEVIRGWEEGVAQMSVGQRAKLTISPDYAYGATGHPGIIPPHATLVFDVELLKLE
By Kd is commonly meant the constant that tells how readily two partners part at equilibrium. `C/C=C(/C)C(=O)O[C@@H]1[C@H](OC(C)=O)[C@@]2(CO)C(CC1(C)C)C1=CCC3[C@@]4(C)CC[C@H](O[C@@H]5O[C@H](C(=O)O)[C@@H](O[C@@H]6O[C@H](CO)[C@@H](O)[C@H](O)[C@H]6O)[C@H](O)[C@H]5O[C@@H]5O[C@H](CO)[C@@H](O)[C@H](O)[C@H]5O)[C@](C)(CO)C4CC[C@@]3(C)[C@]1(C)C[C@H]2O` (some centres undefined): the Kd is > 4 mM (inactive). For `CCSc1nnc(-c2ccccc2N)c(=O)[nH]1`, the Kd was > 4 mM (inactive). On to `Cc1nc(-c2ccc(CO)s2)cs1`, for which the Kd is > 4 mM (inactive). In the case of `NCc1ccc(-c2csnn2)cc1`, the Kd was > 4 mM (inactive). `Cc1ccc(/C=C2/C(=O)N=C(N)N2C)s1`: the Kd was > 4 mM (inactive). Consider `O=S(=O)(Nc1ccc(F)cc1)N1CCCCC1`, for which the Kd result is “inactive”. In the case of `Cc1sc(N)c(C(N)=O)c1C`, the Kd is > 4 mM (inactive). Regarding `O=C1CCNc2cc3ccccc3cc21`, the Kd is > 4 mM (inactive). `Cc1sc2nc[nH]c(=S)c2c1C`: the Kd was > 4 mM (inactive). As for `CC(C)NC(=O)c1cc(-n2cnnc2)ccc1Cl`, the Kd was > 4 mM (inactive).

Turning to `COC(=O)[C@@H]1CCCCN1C(=O)C(=O)c1cc(OC)c(OC)c(OC)c1`, the Kd was 0.003 mM.

On to `Nc1ccc(F)cc1F`, for which the Kd was > 4 mM (inactive). The figure for `Cc1cc(C)n2nc(Cc3ccccc3)nc2n1` is > 4 mM (inactive).

Regarding `O=C(c1sc2cccc(Cl)c2c1Cl)N1CCOCC1`, the Kd entry is “inactive”. Regarding `CNC(=O)COc1cccc2c1CCNC2=O`, the Kd was > 4 mM (inactive).

As to `NCc1c[nH]c2ccccc12`, the Kd was > 4 mM (inactive). The figure for `O=C(O)c1cncc(-c2cccs2)c1` is > 4 mM (inactive). For the molecule `CCCc1nc2ccccc2c2nc(N)nn12`, the Kd was > 4 mM (inactive). `O=C(NCc1cccs1)c1ccncc1`: the Kd was > 4 mM (inactive). With `O=c1cccc2n1C[C@H]1CNCC2C1`, the Kd is > 4 mM (inactive). As to `FC(F)(F)c1nnc2ccc(N3CCOCC3)nn12`, the Kd was > 4 mM (inactive). As for `Cc1nc2ccccc2c(=O)n1CCCn1ccnc1`, the Kd is > 4 mM (inactive). Regarding `NC1=NC(=O)/C(=C\c2ccccc2)S1`, the Kd is > 4 mM (inactive). For `Cc1nc2c(n1O)CCc1c-2no[n+]1[O-]`, the Kd is > 4 mM (inactive).

`OCC1CCN(c2ncccn2)CC1`: the Kd is > 4 mM (inactive).

Consider `NC(Cc1c[nH]c2ccccc12)C(=O)O` (centres undefined), for which the Kd was > 4 mM (inactive).

For the molecule `COC(=O)CC1=Nc2ccccc2NC(=O)C1`, the Kd was > 4 mM (inactive).

As for `CCn1nnc(NC(=O)c2cc3ccccc3o2)n1`, the Kd is > 4 mM (inactive). The figure for `Nc1ccc(-n2cncn2)cc1` is > 4 mM (inactive); for `O=C1C[C@@H](c2ccc(O)cc2)Oc2cc(O)cc(O)c21` it is > 4 mM (inactive); for `O=C1C=CC2=C3c4cc(O)c(O)cc4C[C@@]3(O)COC2=C1` it is > 4 mM (inactive). Turning to `Nc1ncnc2c1ncn2C1O[C@H](COP(=O)(O)O)[C@@H](O)[C@H]1O` (some centres undefined), the Kd is > 4 mM (inactive).

In the case of `O=C(CSc1ccnc(=O)[nH]1)NCc1ccco1`, the Kd is > 4 mM (inactive). In the case of `CC(C)CCn1cnc2c1c(=O)n(C)c(=O)n2C`, the Kd was > 4 mM (inactive). Turning to `NC(=O)CSc1ccc(Br)cc1`, the Kd was > 4 mM (inactive). Consider `COc1cc(-c2coc3cc(O[C@@H]4O[C@H](CO)[C@@H](O)[C@H](O)[C@H]4O)c(OC)c(O)c3c2=O)cc(O)c1OC`, for which the Kd is > 4 mM (inactive). Take `O=C(c1sc2cc(Cl)cc(Cl)c2c1Cl)N1CCOCC1`: the Kd result is “inactive”.

In the case of `COc1c2ccccc2nc2occc12`, the Kd was > 4 mM (inactive). Turning to `O=C(NCc1ccco1)c1ccc(=O)[nH]c1`, the Kd was > 4 mM (inactive).

Consider `c1ccc(CN2CCC3(CC2)Nc2ccccc2CO3)cc1`, for which the Kd was > 4 mM (inactive).

For the molecule `c1ccc2[nH]c(SCc3cscn3)nc2c1`, the Kd entry is “inactive”. `Cc1ccccc1NC(=O)N1CCOCC1`: the Kd is > 4 mM (inactive). With `S=C(c1ccc(N2CCOCC2)cc1)N1CCCCC1`, the Kd was > 4 mM (inactive).

For `COc1c(CC=C(C)C)c2c(c3oc(=O)c(-c4ccc(O)cc4)c(O)c13)C=CC(C)(C)O2`, the Kd was > 4 mM (inactive).

On to `COc1ccc(-c2cc(=O)c3ccccc3o2)cc1OC`, for which the Kd is > 4 mM (inactive). Consider `Cc1cc(C(=O)c2c(C)nn(C)c2Cl)n(C)n1`, for which the Kd was > 4 mM (inactive). For the molecule `CC(=O)Nc1ccc2c(C)cc(=O)[nH]c2c1`, the Kd was > 4 mM (inactive). For `COc1ccc(-c2oc3ccccc3c(=O)c2O)cc1OC`, the Kd is > 4 mM (inactive). Take `O=NN1C(=O)c2ccccc2C1=O`: the Kd was > 4 mM (inactive). `C(=Nn1cnnc1)c1ccccc1`: the Kd was > 4 mM (inactive). With `NS(=O)(=O)c1ccccc1Cl`, the Kd was > 4 mM (inactive). As for `CC(C)=CCOc1c2occc2cc2ccc(=O)oc12`, the Kd was > 4 mM (inactive). On to `CC(=O)Nc1ccn(Cc2c(F)cccc2Cl)n1`, for which the Kd is > 4 mM (inactive). For the molecule `Cc1cc(NC(=O)CS(=O)(=O)c2ccccc2)no1`, the Kd is > 4 mM (inactive). Take `Nc1ncnc(NCc2cccnc2)c1[N+](=O)[O-]`: the Kd was > 4 mM (inactive). The figure for `N[C@@H](CCC(=O)N[C@@H](CS)C(=O)NCC(=O)O)C(=O)O` is > 4 mM (inactive). Take `O=C(Nc1ccc2c(c1)OCCO2)c1c(F)cccc1F`: the Kd is > 4 mM (inactive). Take `O=c1c[n+]([O-])c2ccccc2n1OCc1ccccc1`: the Kd was > 4 mM (inactive). In the case of `O=C(Nc1ccc2c(c1)OCO2)c1c(F)cccc1F`, the Kd is > 4 mM (inactive). The figure for `Cc1cc(=O)[nH]c(N2CCCCC2)n1` is > 4 mM (inactive); for `Cc1ccc(SCc2cc(=O)n3[nH]cnc3n2)cc1` it is > 4 mM (inactive); for `O=C(O)CCC(=O)Nc1ccccc1F` it is > 4 mM (inactive).

On to `Cc1ccc(N2C(=O)C3C4C=CC(O4)C3C2=O)cc1` (centres undefined), for which the Kd is > 4 mM (inactive). `CS(=O)(=O)Cc1ccccc1`: the Kd was > 4 mM (inactive). Take `O=C(O)c1ccnc2ccccc12`: the Kd was > 4 mM (inactive). In the case of `CC(=O)c1c(C)nn(CC(=O)O)c1C`, the Kd is > 4 mM (inactive).

Consider `O=C1CC2OCC=C3CN4CC[C@]56c7ccccc7N1C5[C@H]2[C@H]3CC46` (some centres undefined), for which the Kd was > 4 mM (inactive). As for `COC(=O)Cc1cccc(OC)c1`, the Kd was > 4 mM (inactive). Turning to `O=C(Oc1ccc2c(c1)OCC2=O)c1ccccc1`, the Kd is > 4 mM (inactive). Take `N=C1/C(=C\c2ccco2)C(=O)N=C2SC=NN12`: the Kd is > 4 mM (inactive). The figure for `C(=N\c1nccs1)/c1cccnc1` is > 4 mM (inactive); for `Cc1cc(C)c2nncn2n1` it is > 4 mM (inactive).

With `C[C@@H]1CC[C@@]2(OC1)OC1CC3C4CC=C5C[C@@H](O)CC[C@]5(C)C4CC[C@]3(C)C1[C@@H]2C` (some centres undefined), the Kd was > 4 mM (inactive). `O=C(O)C1CNc2ccccc2O1` (centres undefined): the Kd was > 4 mM (inactive). For `COc1ccc(N=C2NC(=O)CS2)cc1`, the Kd is > 4 mM (inactive). Regarding `CSc1ccc(C2NC(=O)CCC2[N+](=O)[O-])cc1` (centres undefined), the Kd is > 4 mM (inactive). On to `Cc1cccc(-c2nnc(-c3ccc(N)cc3)o2)c1`, for which the Kd was > 4 mM (inactive). On to `CN1C(=O)c2ccc(N=C3NC(=O)CS3)cc2C1=O`, for which the Kd was > 4 mM (inactive). Turning to `O=C(Nc1ccncc1)Nc1ccc(F)cc1F`, the Kd is > 4 mM (inactive).

Consider `c1ccc2c(c1)nnn2C1CCNCC1`, for which the Kd is > 4 mM (inactive).

Consider `Cc1cc(C(=O)N2CCOCC2)c(C)o1`, for which the Kd is > 4 mM (inactive).

Turning to `COc1cc2c(cc1-c1cc3cc4ccoc4cc3oc1=O)OCO2`, the Kd was > 4 mM (inactive). The figure for `Cc1cc(C)c(C#N)c(N2CCCC2)n1` is > 4 mM (inactive).

Turning to `OCc1ccc2nsnc2c1`, the Kd is > 4 mM (inactive).

For the molecule `Cn1c(O)c(C2=NC(=S)NC2=O)c2ccccc21`, the Kd is > 4 mM (inactive). With `O=C(Nn1cnnc1)c1cccc(C(F)(F)F)c1`, the Kd is > 4 mM (inactive). `CCc1cc(=O)[nH]c(SCC(=O)NCCOC)n1`: the Kd is > 4 mM (inactive).

As for `O=C1CCC(=O)N1c1ccc(O)cc1`, the Kd was > 4 mM (inactive). The figure for `O=c1c2ccccc2nc2n1CCS2` is > 4 mM (inactive); for `COC(=O)c1ccc2nccnc2c1` it is > 4 mM (inactive); for `C1CCN2C[C@@H]3C[C@H](CN4CCCC[C@@H]34)[C@H]2C1` it is > 4 mM (inactive). Regarding `Cc1cc(Cl)ccc1NC(=O)C(N)=O`, the Kd is > 4 mM (inactive).

Take `COc1cccc(N2CCNCC2)c1`: the Kd was > 4 mM (inactive). On to `CNc1ccccc1C(=O)O`, for which the Kd is > 4 mM (inactive).

As to `O=C(Nc1nnc(C(F)(F)F)s1)c1cccnc1`, the Kd is > 4 mM (inactive). Consider `CC(NC(=O)C1CCCCC1)C(=O)NC1=NCCS1` (centres undefined), for which the Kd was > 4 mM (inactive). Consider `CN=C1SC(CC(=O)Nc2ccc(O)cc2)C(=O)N1C` (centres undefined), for which the Kd is > 4 mM (inactive).

As for `O=C1NC(=S)N/C1=C/c1ccsc1`, the Kd was > 4 mM (inactive).

Take `Nc1ncnc(NCCO)c1[N+](=O)[O-]`: the Kd is > 4 mM (inactive). Regarding `CN(C)S(=O)(=O)c1ccc(N2CCOCC2)nc1`, the Kd was > 4 mM (inactive). On to `O=c1[nH]cc(N2CCCCC2)c(=O)[nH]1`, for which the Kd is > 4 mM (inactive). `Cc1cc(C(=O)Nc2sc3c(c2C#N)CCC3)no1`: the Kd is > 4 mM (inactive). As to `COc1cc(OC)c2c(OC)c(-c3ccc4c(c3)OCO4)c(=O)oc2c1`, the Kd is > 4 mM (inactive). For the molecule `CN(C)Cc1c(N)cccc1O`, the Kd was > 4 mM (inactive).
